Source: patent US8106092B2, “Treatment of solid cancers” (priority 2004, dated 2012)

What was measured:
B16 tumors [1] = assay: PEP005-mediated cure of primaries plus DC therapy, growth of secondary tumors, B16 model; type: in vivo, C57BL/6 mice; conditions: DC p=0.009
Description: FIGS. 13A to C are graphical representations showing synergistic effects between PEP005-mediated cure of primaries and DC therapy on the growth of secondary tumors and on CD8^+ T-cell induction. (A) On d−3 C57BL/6 mice where inoculated with 2×10^6 B16-OVA cells on the right flank (primary tumor) and 2×10^4 B16-OVA cells on the left flank (secondary tumor). On d0 and d1 the primary B16-OVA tumors, which has reach 30.4 mm^2+SD6 were cured with i.t. injections of 25 μg of PEP005 formulated in PEG400. On d4 and d11 mice received DC therapy using DC2.4 cells pulsed with SVYDFFVWL [SEQ ID NO:1], KVPRNQDWL [SEQ ID NO:4] and SIINFEKL [SEQ ID NO:2] peptides, and ovalbumin (n=12, PEP005+DC). […] A third group was inoculated with secondary tumors only and received the DC therapy (n=14, DC), and the control group was given only secondary tumors and received no treatment (n=18, Control). Animals were culled when the secondary tumors reached 100 mm^2. (B) The experiment in (A) was repeated in the B16 model (n=6 per group). On d−2 C57BL/6 mice were inoculated with 10^6 B16 cells on the right flank (primary tumor) and 5×10^4 cells on the left flank (secondary tumors). […] Animal groups were established and treated as in (A) except that on d12 mice were sacrificed and splenocytes analyzed in an ex vivo ELISPOT assay for responses to SVYDFFVWL [SEQ ID NO:1], KVPRNQDWL [SEQ ID NO:4] and SIINFEKL [SEQ ID NO:2] […]

B16 tumors [2] = assay: Example 3: topical PEP005 with DC+IL-2 and M720/B16, larger primary B16 tumors; type: in vivo, C57BL/6 mice; conditions: topical dose printed 15 μg/ml, tumors 26-30 mm^2
From the text: To determine whether PEP005 treatment could synergize with (i) vaccine-induced anti-cancer CD4 T-cells/antibodies and/or (ii) vaccine-induced anti-cancer CD8^+ T-cells, topical PEP005 treatment was combined with vaccination using (i) B16 lysate emulsified in Montanide ISA 720 adjuvant (M720/B16) and (ii) DC2.4 cells sensitized with TRP-2 peptide, SVYDFFVWL [SEQ ID NO:1] and activated with LPS (DC). The latter group also received IL-2 to maintain the vaccine induced T-cells. […] This experiment sought to determine whether improvements in B16 cure rate could be achieved when sub-optimal topical PEP005 treatment was combined with other immune-based therapies. This experiment differed from that described in Example 2 in that treatment was initiated when tumors were slightly larger and the M720/B16 vaccine was given d0 not d−5, and the dose of B16 cells in that vaccine was increased 10-fold.
B16 tumors were injected 2×10^6 s.c. into C57BL/6 mice on d−3 and on dO when the tumors had reached an average size of 26-30 mm^2, the groups of animal received the following treatments. […]
PEP005+DCAL-2: PEP005 (as above) plus DC2.4 cells which were (i) sensitized with TRP-2 peptide, SVYDFFVWL [SEQ ID NO:1] […]

C/C=C(/C)C(=O)O[C@H]1C(C)=C[C@]23C(=O)[C@@H](C=C(CO)[C@@H](O)[C@]12O)[C@H]1[C@@H](C[C@H]3C)C1(C)C [PEP005, ingenol-3-angelate]
growth of secondaries vs no treatment controls (B16 tumors [1]): did not provide a significant delay of tumor growth
cure of B16 tumors by topical PEP005 alone (B16 tumors [2]): did not cure most B16 tumors
